From patent US20060177530A1, “Method of treating diabetes type II” (priority 2003, published 2006)

Tested on: mice
Assay: Safety and toxicity studies in mice
Assay type: in vivo
Conditions: 0.5, 1 and 2 g/kg
Protocol: The clinical dose of HT is in the range of 1-2000 mg/day, more preferably in the range of 5-500 mg/day and most preferably 10-100 mg/day.

## OCCc1ccc(O)c(O)c1 [HT, hydroxytyrosol]
  clinical or pathological toxicity: no clinical or pathological toxicity
